Laboratory results: patent publication US20230295157A1, “3-(1H-IMIDAZOL-2-YL)-2,3,8,8A-TETRAHYDROINDOLIZIN-5(1H)-ONE DERIVATIVES USEFUL AS FACTOR XIA INHIBITORS” (JANSSEN PHARMACEUTICA NV, priority 2020, published 2023)
Where two headings read alike, the source gives them in different places.

Key:
Factor XIa = Factor XIa (Homo sapiens (Human), UniProt P03951); assay: Factor XIa inhibition assay (FLINT) utilizing a fluorophore-quencher pair peptide substrate; type: biochemical; conditions: 30 min preincubation, kinetic reads over 30 min, read-out: FXIa Kin Inh IC50
Sequence of Factor XIa (P03951 388-625): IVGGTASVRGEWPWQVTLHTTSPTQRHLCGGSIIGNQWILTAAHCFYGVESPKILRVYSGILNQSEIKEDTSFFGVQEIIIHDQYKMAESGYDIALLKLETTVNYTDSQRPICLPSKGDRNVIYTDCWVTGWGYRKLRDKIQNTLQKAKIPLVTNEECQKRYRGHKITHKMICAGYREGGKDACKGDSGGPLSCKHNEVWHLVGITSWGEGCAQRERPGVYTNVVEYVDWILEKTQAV
Sequence of Factor XIa (P03951 19-387 partner): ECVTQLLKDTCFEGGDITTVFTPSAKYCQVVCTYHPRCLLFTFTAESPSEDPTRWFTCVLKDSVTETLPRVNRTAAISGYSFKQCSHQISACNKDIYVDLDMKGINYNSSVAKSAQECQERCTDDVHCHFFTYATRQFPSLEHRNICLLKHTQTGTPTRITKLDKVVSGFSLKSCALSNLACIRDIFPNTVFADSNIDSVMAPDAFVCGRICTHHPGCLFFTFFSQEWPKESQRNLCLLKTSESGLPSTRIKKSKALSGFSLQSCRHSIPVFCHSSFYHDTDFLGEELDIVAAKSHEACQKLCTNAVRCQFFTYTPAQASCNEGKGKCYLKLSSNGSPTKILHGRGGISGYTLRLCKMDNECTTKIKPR
Excerpt: Biological Example 1: Factor XIa Inhibition Assay Utilizing a Fluorophore-Quencher Pair Peptide Substrate
A fluorescence intensity (FLINT) based assay was used to monitor inhibition of Factor XIa. The peptide substrate, 5Fam-[…]-K5Tamra (purchased from New England Peptide) was chosen based on the FXI sequence. Conversion of zymogen […]. The custom peptide used in this assay was based on the Arg146 cleavage site of FXI. The peptide substrate was designed with a fluorophore-quencher pair, where the fluorescence is quenched until FXIa cleaves the 8-mer peptide after the Arg residue.
The Factor XIa FLINT assay was used with the following 5Fam-[…]-K5Tamra assay buffer: 50 mM Tris, pH 7.5, 100 mM NaCl, 5 mM CaCl2), 0.1 mg/mL BSA, 0.03% CHAPS. Assay buffer was prepared by mixing all ingredients fresh. 5Fam-[…]-K5Tamra peptide substrate was first prepared at 10 mM in 100% DMSO, then diluted to 3 mM in 100% DMSO. Assay buffer was then added directly to the 3 mM stock of substrate to prepare the 30 μM 2× working concentration (15 μM final concentration). The 2×Factor XIa stock solution was prepared by diluting 6.562 μM stock in 1×assay buffer for a 200 μM working stock solution (100 μM final concentration).
Test compound(s) were run in an 11-point, 3-fold serial dilution with a final top compound concentration of 100 nM. Final DMSO in assay was 2%. FXIa was preincubated with compound for 30-minutes and then substrate was added to initiate the reaction. The assay was run with kinetic (KIN) reads at 5 min intervals over 30 minutes. The time course was linear using 100 μM FXIa greater than 30 minutes. More specifically, the assay was run as follows: • 100 nL of 0.01 mM test compound was dispensed into black 384 well non-binding Greiner BioOne 784900 plate for 0.1 μM final concentration; • 5 μL of 1×assay buffer was dispensed to column 24 (low control) and 5 μL 2×Factor XIa solution was dispensed to columns 1-23 (column 23 high control); • the plate was centrifuged with a “cover” plate at 500 rpm for 1 min • the plate was pre-incubated for 30 minutes at room temperature with plate covered; • 5 μL of 2×5Fam-[…]-K5Tamra peptide substrate was dispensed into the entire plate, columns 1-24; • the plate was centrifuged with a “cover” plate at 500 rpm for 1 min; • the plate was read monitoring fluorescence intensity on the BMG PHERAStar at room temperature, using fluorescence module 485 nm/520 nm.
(§1) Percent inhibition (IC50) curves were generated per compound tested, and data was analyzed using a 4-parameter logistic fit using GeneData Screener. The relative fluorescence unit (RFU) values were normalized to percent inhibition using the following equation:
% inhibition=((HC-LC)−(compound−LC)/(HC-LC))*100
where LC—low control=mean signal of no Factor XIa or 100% inhibition of Factor XIa; HC—high control=mean signal of Factor XIa+5Fam-[…]-K5Tamra peptide substrate with DMSO only.
(§2) An 11-point dose response curve for the test compound(s) was generated using GENDATA to determine IC50 value based on the following equation:
Y=Bottom+(Top-Bottom)/(1+10^((logIC50-X)*HillSlope))
where Y is the % inhibition in the presence of X inhibitor concentration, Top=high control=mean signal of Factor XIa+5Fam-[…] K5Tamra peptide substrate with DMSO only; Bottom=low control−mean signal of no Factor XIa or 100% inhibition of Factor XIa; HillSlope—Hill coefficient; and IC50=concentration of compound with 50% inhibition in relation to top/high control.
Representative compounds of the present invention were tested according to the procedure described in Biological Example 1 and Biological Example 2 above, with results as listed in Table 3, below.

human plasma kallikrein = human plasma kallikrein (Homo sapiens (Human), UniProt P03952); assay: Kallikrein inhibition assay (FLINT) utilizing a quenched AMC peptide substrate; type: biochemical; conditions: 30 min preincubation, kinetic reads over 30 min, Z-Gly-Pro-Arg-AMC substrate 50 μM; read-out: Kallikrein Kin Inh IC50
Sequence of human plasma kallikrein (P03952 391-638): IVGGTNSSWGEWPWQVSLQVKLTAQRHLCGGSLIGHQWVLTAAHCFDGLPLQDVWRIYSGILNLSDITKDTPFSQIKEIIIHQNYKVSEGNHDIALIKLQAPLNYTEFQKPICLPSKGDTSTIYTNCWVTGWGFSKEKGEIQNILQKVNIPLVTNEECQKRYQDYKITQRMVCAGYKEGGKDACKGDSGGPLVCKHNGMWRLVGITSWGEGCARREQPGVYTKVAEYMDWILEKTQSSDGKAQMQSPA
Sequence of human plasma kallikrein (P03952 20-390 partner): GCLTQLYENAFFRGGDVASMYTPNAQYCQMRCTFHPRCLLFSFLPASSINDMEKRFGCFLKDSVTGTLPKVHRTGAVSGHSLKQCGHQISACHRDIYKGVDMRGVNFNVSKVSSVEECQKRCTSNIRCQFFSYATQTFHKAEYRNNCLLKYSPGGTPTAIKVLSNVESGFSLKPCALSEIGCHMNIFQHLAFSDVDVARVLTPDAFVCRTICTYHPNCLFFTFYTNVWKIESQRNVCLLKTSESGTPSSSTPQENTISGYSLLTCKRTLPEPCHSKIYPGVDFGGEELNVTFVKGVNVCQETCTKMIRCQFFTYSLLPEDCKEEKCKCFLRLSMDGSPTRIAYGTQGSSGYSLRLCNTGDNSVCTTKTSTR
Method: Biological Example 2: Kallikrein Inhibition Assay Utilizing a Quenched AMC Peptide Substrate A fluorescence intensity (FLINT) based assay was used to monitor inhibition of human plasma kallikrein.
The Kallikrein FLINT assay was used with the following Z-Gly-Pro-Arg-AMC assay buffer: 50 mM Tris, pH 7.5, 100 mM NaCl, 5 mM CaCl2), 0.1 mg/mL BSA, 0.03% CHAPS. Assay buffer was prepared by mixing all ingredients fresh. 2×Z-Gly-Pro-Arg-AMC peptide substrate was prepared by diluting 10 mM stock into 1×assay buffer for a 100 μM working concentration (50 μM final concentration). The 2×kallikrein stock solution was prepared by diluting 14.76 μM stock in 1×assay buffer for a 4 nM working stock solution (2 nM final concentration).
Test compound(s) were run in an 11-point, 3-fold serial dilution with a final top compound concentration of 1 μM. Final DMSO in assay was 2%. Plasma kallikrein was pre-incubated for 30-minute with compound and then 50 μM substrate was added to initiate the reaction. The assay was run with kinetic (KIN) reads at 5 min intervals over 30 minutes. […] More specifically, the assay was run as follows: • 100 nL of 0.1 mM test compound was dispensed into black 384-well non-binding Greiner BioOne 784900 plate for 1 μM final concentration; • 5 μL of 1×assay buffer was dispensed to columns 24 (low control) and 5 μL 2×human kallikrein enzyme solution was dispensed to columns 1-23 (column 23 high control); • the plate was centrifuged with a “cover” plate at 500 rpm for 1 min • the plate was pre-incubated for 30 minutes at room temperature with plate covered; • 5 μL of 2×Z-Gly-Pro-Arg-AMC peptide substrate was dispensed into the entire plate, columns 1-24; • the plate was centrifuged with a “cover” plate at 500 rpm for 1 min; • the plate was read monitoring fluorescence intensity on the BMG PHERAStar at room temperature, using fluorescence module 340 nm/440 nm.
as §1
% inhibition=((HC-LC)−(compound-LC)\(HC-LC))*100 where LC—low control=mean signal of human kallikrein enzyme or 100% inhibition of human kallikrein enzyme; HC—high control=mean signal of Factor XIa+Z-Gly-Pro-Arg-AMC peptide substrate with DMSO only.
as §2
Y=Bottom+(Top-Bottom)/(1+10^((logIC50−X)*HillSlope)) where Y is the % inhibition in the presence of X inhibitor concentration, Top=high control=mean signal of human kallikrein enzyme+Z-Gly-Pro-Arg-AMC peptide substrate with DMSO only; Bottom=low control−mean signal of no human kallikrein enzyme or 100% inhibition of human kallikrein enzyme; HillSlope—Hill coefficient; and IC50=concentration of compound with 50% inhibition in relation to top/high control.

[1] = 5Fam-KLTRAETV-K5Tamra substrate 15 μM
[2] = 5Fam-[…]-K5Tamra substrate 15 μM

SMILES	IC50 (Factor XIa; [1]) [nM]	IC50 (human plasma kallikrein) [nM]	IC50 (Factor XIa; [2]) [nM]
O=C1C=C(c2c(C(F)F)ccc(Cl)c2F)C[C@H]2CC[C@@H](c3nc(F)c(-c4ccnc(CO)c4F)[nH]3)N12 [Example 27, (3S,8aR)-7-(3-Chloro-6-(difluoromethyl)-2-fluorophenyl)-3-(4-fluoro-5-(3-fluoro-2-(hydroxymethyl)pyridin-4-yl)-1H-imidazol-2-yl)-2,3,8,8a-tetrahydroindolizin-5(1H)-one]	> 100	118	
C[C@@H](Oc1nccc(-c2cnc([C@@H]3CC[C@@H]4CC(c5c(-n6cnnn6)ccc(Cl)c5F)=CC(=O)N43)[nH]2)c1F)c1ncco1 (single isomer, unassigned) [Example 141, (3*S,8a*R)-7-(3-chloro-2-fluoro-6-(1H-tetrazol-1-yl)phenyl)-3-(5-(3-fluoro-2-((*R)-1-(oxazol-2-yl)ethoxy)pyridin-4-yl)-1H-imidazol-2-yl)-2,3,8,8a-tetrahydroindolizin-5(1H)-one]	10.8	13	
[2H]c1cc(Cl)c(F)c(C2=CC(=O)N3[C@H](CC[C@H]3c3nc([2H])c(-c4ccc(N)nc4F)[nH]3)C2)c1-n1cnnn1 [Example 129, (3S,8aR)-3-(5-(6-amino-2-fluoropyridin-3-yl)-1H-imidazol-2-yl-4-d)-7-(3-chloro-2-fluoro-6-(1H-tetrazol-1-yl)phenyl-5-d)-2,3,8,8a-tetrahydroindolizin-5(1H)-one]		5.4	0.4
O=C1C=C(c2c(-n3cnnn3)ccc(Cl)c2F)C[C@H]2CC[C@@H](c3ncc(-c4cc[n+]([O-])c(CO)c4F)[nH]3)N12 [Example 65, 4-(2-((3S,8aR)-7-(3-chloro-2-fluoro-6-(1H-tetrazol-1-yl)phenyl)-5-oxo-1,2,3,5,8,8a-hexahydroindolizin-3-yl)-1H-imidazol-5-yl)-3-fluoro-2-(hydroxymethyl)pyridine 1-oxide]	45.4	420	
O=C1C=C(c2c(-n3cnnn3)ccc(Cl)c2F)C[C@H]2CC[C@H](c3ncc(-c4ccnc(N5CCC5)c4F)[nH]3)N12 (single isomer, unassigned) [Example 110, (3*R,8aR)-3-(5-(2-(azetidin-1-yl)-3-fluoropyridin-4-yl)-1H-imidazol-2-yl)-7-(3-chloro-2-fluoro-6-(1H-tetrazol-1-yl)phenyl)-2,3,8,8a-tetrahydroindolizin-5(1H)-one]		6.9	11
O=C1C=C(c2c(-n3cnnn3)ccc(Cl)c2F)C[C@H]2CC[C@@H](c3ncc(-c4ccnc(-c5ncc[nH]5)c4F)[nH]3)N12 [Example 2, (3S,8aR)-7-[3-Chloro-2-fluoro-6-(tetrazol-1-yl)phenyl]-3-[5-[3-fluoro-2-(1H-imidazol-2-yl)-4-pyridyl]-1H-imidazol-2-yl]-2,3,8,8a-tetrahydro-1H-indolizin-5-one]	1.9	9.3	
CC(=O)NCc1nccc(-c2cnc([C@@H]3CC[C@@H]4CC(c5c(-n6cnnn6)ccc(Cl)c5F)=CC(=O)N43)[nH]2)c1F [Example 13, N-[[4 [2-[(3S,8aR)-7-[3-Chloro-2-fluoro-6-(tetrazol-1-yl)phenyl]-5-oxo-2,3,8,8a-tetrahydro-1H-indolizin-3-yl]-1H-imidazol-5-yl]-3-fluoro-2-pyridyl]methyl]acetamide]	4.2	68.6	

Continued, values first:

IC50 (Factor XIa; [1]) [nM]	IC50 (human plasma kallikrein) [nM]	IC50 (Factor XIa; [2]) [nM]	SMILES
3.5	11.4		COc1n[nH]cc1-c1cnc([C@@H]2CC[C@@H]3CC(c4c(-n5cnnn5)ccc(Cl)c4F)=CC(=O)N32)[nH]1 [Example 227, (3S,8aR)-7-(3-chloro-2-fluoro-6-(1H-tetrazol-1-yl)phenyl)-3-(5-(3-methoxy-1H-pyrazol-4-yl)-1H-imidazol-2-yl)-2,3,8,8a-tetrahydroindolizin-5(1H)-one]
4.6	7.8		NC(=O)c1ncc(-c2cnc([C@@H]3CC[C@@H]4CC(c5c(-n6cc(Cl)nn6)ccc(Cl)c5F)=CC(=O)N43)[nH]2)s1 [Example 208, 5-(2-((3S,8aR)-7-(3-Chloro-6-(4-chloro-1H-1,2,3-triazol-1-yl)-2-fluorophenyl)-5-oxo-1,2,3,5,8,8a-hexahydroindolizin-3-yl)-1H-imidazol-5-yl)thiazole-2-carboxamide]
5.6	1.5		NC(=O)c1cccc(-c2cnc([C@@H]3CC[C@@H]4CC(c5c(-n6cnnn6)ccc(Cl)c5F)=CC(=O)N43)[nH]2)c1F [Example 237, 3-(2-((3S,8aR)-7-(3-Chloro-2-fluoro-6-(1H-tetrazol-1-yl)phenyl)-5-oxo-1,2,3,5,8,8a-hexahydroindolizin-3-yl)-1H-imidazol-5-yl)-2-fluorobenzamide]
4.3	16.6		C[C@@H](C#N)c1nccc(-c2cnc([C@@H]3CCC4CC(c5c(-n6cnnn6)ccc(Cl)c5F)=CC(=O)N43)[nH]2)c1F (relative stereo) [Example 164, (2*R)-2-(4-(2-((3S)-7-(3-chloro-2-fluoro-6-(1H-tetrazol-1-yl)phenyl)-5-oxo-1,2,3,5,8,8a-hexahydroindolizin-3-yl)-1H-imidazol-5-yl)-3-fluoropyridin-2-yl)propanenitrile]
0.6	4.5		O=C(Nc1ccncc1-c1c[nH]c([C@@H]2CCC3CC(c4c(-n5cnnn5)ccc(Cl)c4F)=CC(=O)N32)n1)C1CC1 (stereo partly drawn) [Example 252, N-[3-[2-[(3S)-7-[3-Chloro-2-fluoro-6-(tetrazol-1-yl)phenyl]-5-oxo-2,3,8,8a-tetrahydro-1H-indolizin-3-yl]-1H-imidazol-4-yl]-4-pyridyl]cyclopropanecarboxamide]
